Results from patent US20230405006A1, “COMBINATION PHARMACEUTICAL COMPOSITION AND TREATMENT METHOD” (CARNA BIOSCIENCES, INC., priority 2020, published 2023).

Tests used:
[1] = tested on: mouse colorectal cancer cell line CT26.WT; experiment: Antitumor effect in allograft (syngeneic) mouse model with mouse colorectal cancer cell line CT26.WT; type: in vivo; conditions: for tumor growth (time course of tumor volume): CT26.WT subcutaneous, FIG. 1
Description: The antitumor effect of the compound according to the present invention was examined by using a syngeneic mouse tumor model with the mouse colorectal cancer cell line CT26.WT (subcutaneous transplantation).
(§1) To RPMI-1640 medium (Life Technologies, No. A1049101), 10% FBS (Biowest) and 1% penicillin streptomycin (NACALAI TESQUE, INC.) were added to prepare a cell culture medium (hereinafter, referred to as the medium 1). CT26.WT cells (ATCC) were cultured with the medium 1 in a flask in a 5% CO2 incubator.
The cell density of CT26.WT cells was adjusted with RPMI-1640 medium (containing 1% penicillin streptomycin, hereinafter, referred to as the medium 2) to 5×10^6 cells/mL; thus a cell preparation solution for transplantation was produced. Into the back of each BALB/cCrslc mouse (female, 8-week-old, Japan SLC, Inc.), 0.1 mL of the cell preparation solution for transplantation was subcutaneously transplanted. On day 3 after the transplantation of cancer cells, the cancer-bearing mice were grouped in such a manner that the means of tumor volume (see a calculation formula below) approximated to each other.
As a sample solution for administration of the test substance, a 1.5 mg/mL solution was prepared. The test substance (71.9 mg) was dissolved in DMSO (2.4 mL, NACALAI TESQUE, INC.), to which polyethylene glycol #400 (24.0 mL, NACALAI TESQUE, INC.) was added and mixed well, and 21.5 mL of 30% (w/v) aqueous solution of 2-hydroxypropyl-β-cyclodextrin (HP-β-CD, Wacker Chemical AG) was then added thereto to produce a 1.5 mg/mL sample solution for administration. […]
Forced oral administration of 0.1 mL of the test substance or a solvent per 10 g body weight on that day (15 mg/kg) was performed to each mouse with transplanted cancer cells (six mice per group) twice per day (interval: 6 hours or longer) from day 3 to day 21 after the transplantation. […] The mice were followed up until day 48 after the transplantation, and the tumor diameter of each mouse was measured to calculate the tumor volume by using the following formula several times per week for evaluation of the antitumor effect. […]

[2] = tested on: mouse B-cell lymphoma cell line A20; experiment: Antitumor effect in allograft (syngeneic) mouse model with mouse B-cell lymphoma cell line A20; type: in vivo
Description: The antitumor effect of the compound according to the present invention was examined by using a syngeneic mouse tumor model with the mouse B-cell lymphoma cell line A20 (subcutaneous transplantation).
as §1, with “FBS (HyClone), 0.05 mM 2-mercaptoethanol,” for “FBS (Biowest)”, “medium 3). A20 cell” for “medium 1). CT26.WT cells”, “medium 3” for “medium 1”
The density of A20 cells was adjusted with the medium 2 to 5×10^7 cells/mL; thus a cell preparation solution for transplantation was produced. […]
Forced oral administration of 0.1 mL of the test substance or a solvent per 10 g body weight on that day (15 mg/kg) was performed to each mouse with transplanted cancer cells (six mice per group) twice per day (interval: 6 hours or longer) from day 3 to day 14 after the transplantation. […] The mice were followed up until day 46 after the transplantation, and the tumor diameter of each mouse was measured to calculate the tumor volume by using the same formula as in Example 1 several times per week for evaluation of the antitumor effect.
In addition, tumor was excised from each mouse on day 46 after the transplantation, and the tumor weight was measured.

## Nc1nc(-c2cccc(-n3ccc4cc(C5CC5)cc(F)c4c3=O)c2CO)c2cc(C3=CCN(C4COC4)CC3)[nH]c2n1 [Compound (I-A), 2-(3-{2-amino-6-[1-(oxetan-3-yl)-1,2,3,6-tetrahydropyridin-4-yl]-7H-pyrrolo[2,3-d]pyrimidin-4-yl}-2-(hydroxymethyl)phenyl)-6-cyclopropyl-8-fluoroisoquinolin-1(2H)-one]
[1]; I-A 15 mg/kg oral twice per day in combination with anti-PD-1 antibody 10 mg/kg i.p. twice per week
  tumor growth (time course of tumor volume): significant tumor growth suppression/tumor regression effect
[1]; I-A 15 mg/kg oral twice per day in combination with anti-PD-1 antibody 10 mg/kg i.p., CT26.WT, six mice per group
  complete regression of tumor (mice with transplanted tumor): five of the six
[1]; I-A alone, 15 mg/kg oral twice per day, day 3 to 21, BALB/c mice, followed to day 48
  tumor growth (time course of tumor volume): suppressed tumor growth
[2]; I-A 15 mg/kg oral twice per day (day 3 to 14) in combination with anti-PD-1 antibody 10 mg/kg i.p. twice per week, A20 subcutaneous, FIG. 2
  tumor growth / tumor weight on day 46 after the transplantation: significant tumor growth suppression/tumor regression effect
[2]; I-A 15 mg/kg oral twice per day in combination with anti-PD-1 antibody 10 mg/kg i.p., A20, six mice per group
  complete regression of tumor (mice with transplanted tumor): five of the six
